# Data from patent publication US20220125772A1, “A2A ANTAGONISTS AS COGNITION AND MOTOR FUNCTION ENHANCERS” (Biotie Therapies, Inc., priority 2010, published 2022).
# Key:
# Assay type in all cases: in vivo, human
# [1] = tested on: Parkinson's disease (PD) patients; experiment: Continuous Performance Test (CPT) in Parkinson's disease patients, double-blind crossover study; conditions: either dose (60 mg bid, 20 mg bid) with levodopa; all p-values>0.05
# Source text: (§1) Continuous performance testing, in various forms, has become a standard clinical procedure. Generally speaking, continuous performance testing evaluates a subject's visual attention by displaying a series of visual stimuli, to which the subject is instructed to respond. In a typical case, often referred to as a “Go—No Go” test, the stimuli are of two types (the “Go” and “No Go” stimuli); the subject is instructed to respond only to the “Go” stimulus, and not to respond or “pass” when presented with the “No Go” stimulus. Data collected for each stimulus presented consists of the type of the stimulus; whether or not the subjects responded; and, if so, how long they took to respond. The continuous performance test has been in use since the 1950s.
# (§2) Parkinson's disease (PD) patients participated in a double-blind, crossover study to assess the effect of co-administration of an A2a antagonist with a dopamine precursor on cognition and motor function. The A2a antagonist was 4-hydroxy-4-methyl-piperidine-1-carboxylic acid-(4-methoxy-7-morpholin-4-yl-benzothiazol-2-yl)-amide and the dopamine precursor was levodopa.
# The patients were randomly allocated to 1 week of 4-hydroxy-4-methyl-piperidine-1-carboxylic acid-(4-methoxy-7-morpholin-4-yl-benzothiazol-2-yl)-amide and levodopa, 1 week washout (levodopa only), then 1 week placebo plus levodopa or the reverse order. […]
# [2] = tested on: Parkinson's disease (PD) patients; experiment: Go/No-Go (GNG) Test in Parkinson's disease patients, double-blind crossover study; conditions: for GNG reaction times: vs placebo plus levodopa
# Source text: as §1, §2
# (§3) The patients were randomly allocated to 1 week of 4-hydroxy-4-methyl-piperidine-1-carboxylic acid-(4-methoxy-7-morpholin-4-yl-benzothiazol-2-yl)-amide and levodopa, 1 week washout (levodopa only), then 1 week placebo plus levodopa or the reverse order. Optimal levodopa doses were established for each patient according to normal clinical practice. Active drug was administered at 60 mg bid (N=14) or 20 mg bid (N=12) of 4-hydroxy-4-methyl-piperidine-1-carboxylic acid-(4-methoxy-7-morpholin-4-yl-benzothiazol-2-yl)-amide. At the end of each treatment week, participants completed motor assessments, a Continuous Performance Test (CPT), a Go/No-Go (GNG) Test, and a 2-Back Test after overnight withdrawal of levodopa and again after intravenous (IV) infusion of a suboptimal level of levodopa.
# Subjects monitored a visual display while single uppercase letters were presented one at a time interspersed with the number “5”. Participants were instructed to push a target response button at the occurrence of every letter (i.e., a “Go” response) but to withhold a response for the number 5 (i.e., a “No-Go” response). Target frequency was manipulated in a blocked fashion, with two levels of target frequency (83% letters: 17% “5”s; 50% letters: 50% “5”s).
# [3] = tested on: Parkinson's disease (PD) patients; experiment: Participant-reported sleepiness in Parkinson's disease patients, double-blind crossover study; conditions: compared to placebo
# Source text: as §2, §3
# [4] = tested on: Parkinson's disease (PD) patients; experiment: Motor assessments (tapping speed, UPDRS item) in Parkinson's disease patients, double-blind crossover study
# Source text: as §2, §3
# [5] = tested on: Parkinson's disease (PD) patients; experiment: 2-Back Test in Parkinson's disease patients, double-blind crossover study; conditions: either dose (60 mg bid, 20 mg bid) with levodopa; all p-values>0.05
# Source text: as §2, §3
# [6] = FIG. 1 legend, A2a antagonist compared with placebo, dose not stated
smiles,measurement,setting,value
COc1ccc(N2CCOCC2)c2sc(NC(=O)N3CCC(C)(O)CC3)nc12 [4-hydroxy-4-methyl-piperidine-1-carboxylic acid-(4-methoxy-7-morpholin-4-yl-benzothiazol-2-yl)-amide],effect on the CPT test,[1],no significant effects
same,GNG reaction times,"[2]; 20 mg bid for 1 week with levodopa, p=0.05, N=12",faster GNG reaction times
same,GNG accuracy,"[2]; 60 mg bid and 20 mg bid with levodopa, ps>0.25",without reduced accuracy
same,GNG reaction times,"[2]; 60 mg bid for 1 week with levodopa, p<0.01, N=14",faster GNG reaction times
same,Go/No-Go task mistakes (FIG. 1),[2]; [6],fewer mistakes
same,Go/No-Go task reaction time (FIG. 1),[2]; [6],reaction times are faster
same,reported sleepiness,"[3]; 20 mg bid, p>0.05",no significant difference
same,reported sleepiness,"[3]; 60 mg bid, before and after levodopa, p<0.05",less sleepiness
same,rapidly alternating hand movements item from the UPDRS,"[4]; 60 mg bid and levodopa, p=0.03",significant
same,tapping speed,"[4]; 60 mg bid, before and after levodopa, p: 0.05",significant motor benefit
same,effect on the 2-Back test,[5],no significant effects
